Measurements: patent publication US9605004B2, “Chemical compounds” (SYNGENTA LIMITED, priority 2013, dated 2017)

Tests used:
[1] = tested on: a variety of test species; test: Post-emergence herbicidal activity (Example 8b, Table 3); type: in vivo; details: application post-emergence, rate 1000 g/ha, evaluated after 13 days, scale 0-5; for Herbicidal damage score, ABUTH: Abutilon theophrasti; for Herbicidal damage score, ALOMY: Alopecurus myosuroides; for Herbicidal damage score, AMARE: Amaranthus retroflexus; for Herbicidal damage score, ECHCG: Echinochloa crus-galli; for Herbicidal damage score, SETFA: Setaria faberi; for Herbicidal damage score, ZEAMX: Zea mays
Procedure: (§1) Seeds of a variety of test species were sown in standard soil in pots. After 8 days cultivation (post-emergence) under controlled conditions in a glasshouse (at 24/16° C., day/night; 14 hours light; 65% humidity), the plants were sprayed with an aqueous spray solution derived from the formulation of the technical active ingredient in acetone/water (50:50) solution containing 0.5% Tween 20 (polyoxyethelyene sorbitan monolaurate, CAS RN 9005-64-5). The test plants were then grown in a glasshouse under controlled conditions (at 24/16° C., day/night; 14 hours light; 65% humidity) and watered twice daily. After 13 days, the test was evaluated (5=total damage to plant; 0=no damage to plant).

[2] = tested on: a variety of test species; test: Pre-emergence herbicidal activity (Example 8a, Table 2); type: in vivo; parameters: key: 0 = no damage to plant, 5 = total damage to plant; details: application pre-emergence, rate 1000 g/ha, evaluated after 13 days
Procedure: as §1, with “After” for “After 8 days”, “for one day (pre-emergence)” for “(post-emergence)”

CCOC(c1cc(N2C(=O)C(Cl)=C(C)C2O)nn1C)C(C)(C)C (mixture of isomers) [Compound B34]
3: Herbicidal damage score, ALOMY [1] | Herbicidal damage score, ECHCG [1] | Herbicidal damage score, SETFA [1] | Pre-emergence herbicidal activity, damage score ECHCG [2]
5: Herbicidal damage score, ABUTH [1]
1: Pre-emergence herbicidal activity, damage score SETFA [2] | Pre-emergence herbicidal activity, damage score ZEAMX [2]
0: Herbicidal damage score, ZEAMX [1]
2: Herbicidal damage score, AMARE [1] | Pre-emergence herbicidal activity, damage score ALOMY [2] | Pre-emergence herbicidal activity, damage score AMARE [2]
4: Pre-emergence herbicidal activity, damage score ABUTH [2]

CC1=C(Cl)C(=O)N(c2cc(C(F)C(C)(C)C)n(C)n2)C1O (mixture of isomers) [Compound B37]
5: Herbicidal damage score, ALOMY [1] | Herbicidal damage score, AMARE [1] | Herbicidal damage score, ECHCG [1] | Herbicidal damage score, SETFA [1] | Pre-emergence herbicidal activity, damage score AMARE [2]
3: Pre-emergence herbicidal activity, damage score ALOMY [2] | Pre-emergence herbicidal activity, damage score ECHCG [2] | Pre-emergence herbicidal activity, damage score ZEAMX [2]
4: Herbicidal damage score, ABUTH [1] | Herbicidal damage score, ZEAMX [1] | Pre-emergence herbicidal activity, damage score ABUTH [2] | Pre-emergence herbicidal activity, damage score SETFA [2]

CC1=C(Cl)C(=O)N(c2cc(C(C)(F)C(C)(C)C)n(C)n2)C1O (mixture of isomers) [Compound B40]
5: Herbicidal damage score, ABUTH [1] | Herbicidal damage score, AMARE [1] | Herbicidal damage score, ECHCG [1] | Herbicidal damage score, SETFA [1] | Pre-emergence herbicidal activity, damage score ABUTH [2]
1: Herbicidal damage score, ZEAMX [1] | Pre-emergence herbicidal activity, damage score ALOMY [2]
3: Pre-emergence herbicidal activity, damage score AMARE [2] | Pre-emergence herbicidal activity, damage score SETFA [2]
0: Pre-emergence herbicidal activity, damage score ZEAMX [2]
4: Herbicidal damage score, ALOMY [1]
2: Pre-emergence herbicidal activity, damage score ECHCG [2]

CC1=C(Cl)C(=O)N(c2cc(C(C)c3ccccc3)n(C)n2)C1O (mixture of isomers) [Compound B41]
4: Herbicidal damage score, AMARE [1] | Pre-emergence herbicidal activity, damage score ABUTH [2] | Pre-emergence herbicidal activity, damage score ECHCG [2] | Pre-emergence herbicidal activity, damage score SETFA [2]
2: Herbicidal damage score, ZEAMX [1] | Pre-emergence herbicidal activity, damage score AMARE [2] | Pre-emergence herbicidal activity, damage score ZEAMX [2]
3: Pre-emergence herbicidal activity, damage score ALOMY [2]
5: Herbicidal damage score, ABUTH [1] | Herbicidal damage score, ALOMY [1] | Herbicidal damage score, ECHCG [1] | Herbicidal damage score, SETFA [1]

CC1=C(Cl)C(=O)N(c2cc([S+](C)[O-])n(C)n2)C1O (mixture of isomers) [Compound B46]
5: Herbicidal damage score, ABUTH [1] | Herbicidal damage score, AMARE [1] | Herbicidal damage score, ECHCG [1] | Herbicidal damage score, SETFA [1] | Pre-emergence herbicidal activity, damage score ABUTH [2] | Pre-emergence herbicidal activity, damage score AMARE [2]
3: Pre-emergence herbicidal activity, damage score ALOMY [2]
4: Herbicidal damage score, ALOMY [1] | Herbicidal damage score, ZEAMX [1] | Pre-emergence herbicidal activity, damage score ECHCG [2] | Pre-emergence herbicidal activity, damage score SETFA [2]
1: Pre-emergence herbicidal activity, damage score ZEAMX [2]

CCC1CCn2nc(N3C(=O)C(Cl)=C(C)C3O)cc21 (mixture of isomers) [Compound C10]
5: Herbicidal damage score, ABUTH [1] | Herbicidal damage score, AMARE [1] | Herbicidal damage score, ECHCG [1] | Herbicidal damage score, SETFA [1] | Pre-emergence herbicidal activity, damage score AMARE [2] | Pre-emergence herbicidal activity, damage score SETFA [2]
4: Herbicidal damage score, ALOMY [1] | Herbicidal damage score, ZEAMX [1] | Pre-emergence herbicidal activity, damage score ABUTH [2] | Pre-emergence herbicidal activity, damage score ALOMY [2] | Pre-emergence herbicidal activity, damage score ECHCG [2]
2: Pre-emergence herbicidal activity, damage score ZEAMX [2]

CC1=C(Cl)C(=O)N(c2cc3n(n2)CCC3C)C1O (mixture of isomers) [Compound G1]
4: Pre-emergence herbicidal activity, damage score ALOMY [2] | Pre-emergence herbicidal activity, damage score SETFA [2]
5: Herbicidal damage score, ABUTH [1] | Herbicidal damage score, ALOMY [1] | Herbicidal damage score, AMARE [1] | Herbicidal damage score, ECHCG [1] | Herbicidal damage score, SETFA [1] | Herbicidal damage score, ZEAMX [1] | Pre-emergence herbicidal activity, damage score ABUTH [2] | Pre-emergence herbicidal activity, damage score AMARE [2] | Pre-emergence herbicidal activity, damage score ECHCG [2]
3: Pre-emergence herbicidal activity, damage score ZEAMX [2]

CCC1CCCn2nc(N3C(=O)C(Cl)=C(C)C3O)cc21 (mixture of isomers) [Compound G5]
4: Herbicidal damage score, ALOMY [1] | Pre-emergence herbicidal activity, damage score SETFA [2]
5: Herbicidal damage score, ABUTH [1] | Herbicidal damage score, AMARE [1] | Herbicidal damage score, ECHCG [1] | Herbicidal damage score, SETFA [1] | Herbicidal damage score, ZEAMX [1] | Pre-emergence herbicidal activity, damage score ABUTH [2] | Pre-emergence herbicidal activity, damage score AMARE [2] | Pre-emergence herbicidal activity, damage score ECHCG [2]
3: Pre-emergence herbicidal activity, damage score ALOMY [2]
1: Pre-emergence herbicidal activity, damage score ZEAMX [2]

CC1=C(Cl)C(=O)N(c2cc3n(n2)CCC3C)C1O (mixture of isomers) [Compound G6]
4: Pre-emergence herbicidal activity, damage score ALOMY [2] | Pre-emergence herbicidal activity, damage score SETFA [2]
5: Herbicidal damage score, ABUTH [1] | Herbicidal damage score, ALOMY [1] | Herbicidal damage score, AMARE [1] | Herbicidal damage score, ECHCG [1] | Herbicidal damage score, SETFA [1] | Herbicidal damage score, ZEAMX [1] | Pre-emergence herbicidal activity, damage score ABUTH [2] | Pre-emergence herbicidal activity, damage score AMARE [2] | Pre-emergence herbicidal activity, damage score ECHCG [2]
3: Pre-emergence herbicidal activity, damage score ZEAMX [2]

CCC1CCCn2nc(N3C(=O)C(Cl)=C(C)C3O)cc21 (mixture of isomers) [Compound G7]
4: Herbicidal damage score, ALOMY [1] | Pre-emergence herbicidal activity, damage score SETFA [2]
1: Pre-emergence herbicidal activity, damage score ZEAMX [2]
5: Herbicidal damage score, ABUTH [1] | Herbicidal damage score, AMARE [1] | Herbicidal damage score, ECHCG [1] | Herbicidal damage score, SETFA [1] | Herbicidal damage score, ZEAMX [1] | Pre-emergence herbicidal activity, damage score ABUTH [2] | Pre-emergence herbicidal activity, damage score AMARE [2] | Pre-emergence herbicidal activity, damage score ECHCG [2]
3: Pre-emergence herbicidal activity, damage score ALOMY [2]

CC1=C(Cl)C(=O)N(c2cc3n(n2)CC[S+]([O-])C3(C)C)C1O (mixture of isomers) [Compound G12]
3: Herbicidal damage score, ALOMY [1] | Herbicidal damage score, SETFA [1] | Pre-emergence herbicidal activity, damage score ALOMY [2] | Pre-emergence herbicidal activity, damage score SETFA [2] | Pre-emergence herbicidal activity, damage score ZEAMX [2]
4: Herbicidal damage score, ABUTH [1] | Herbicidal damage score, AMARE [1] | Herbicidal damage score, ECHCG [1] | Pre-emergence herbicidal activity, damage score ABUTH [2] | Pre-emergence herbicidal activity, damage score AMARE [2] | Pre-emergence herbicidal activity, damage score ECHCG [2]
1: Herbicidal damage score, ZEAMX [1]

CC1=C(Br)C(=O)N(c2cc3n(n2)CC[S+]([O-])C3(C)C)C1O (mixture of isomers) [Compound M5]
0: Herbicidal damage score, ZEAMX [1]
1: Herbicidal damage score, SETFA [1] | Pre-emergence herbicidal activity, damage score ALOMY [2] | Pre-emergence herbicidal activity, damage score SETFA [2] | Pre-emergence herbicidal activity, damage score ZEAMX [2]
2: Herbicidal damage score, ALOMY [1] | Herbicidal damage score, AMARE [1] | Herbicidal damage score, ECHCG [1] | Pre-emergence herbicidal activity, damage score ABUTH [2] | Pre-emergence herbicidal activity, damage score AMARE [2] | Pre-emergence herbicidal activity, damage score ECHCG [2]
4: Herbicidal damage score, ABUTH [1]

CC1=C(Cl)C(=O)N(c2cc(C(C)(C)C)[nH]n2)C1O (stereo not drawn) [Compound A1]
2: Pre-emergence herbicidal activity, damage score ZEAMX [2]
5: Herbicidal damage score, ABUTH [1] | Herbicidal damage score, ALOMY [1] | Herbicidal damage score, AMARE [1] | Herbicidal damage score, ECHCG [1] | Herbicidal damage score, SETFA [1] | Herbicidal damage score, ZEAMX [1] | Pre-emergence herbicidal activity, damage score ABUTH [2] | Pre-emergence herbicidal activity, damage score AMARE [2] | Pre-emergence herbicidal activity, damage score ECHCG [2] | Pre-emergence herbicidal activity, damage score SETFA [2]
3: Pre-emergence herbicidal activity, damage score ALOMY [2]

CC1=C(Cl)C(=O)N(c2cc(C(F)(F)F)[nH]n2)C1O (stereo not drawn) [Compound A2]
1: Herbicidal damage score, ZEAMX [1]
5: Herbicidal damage score, ABUTH [1] | Herbicidal damage score, SETFA [1] | Pre-emergence herbicidal activity, damage score ABUTH [2] | Pre-emergence herbicidal activity, damage score AMARE [2]
3: Herbicidal damage score, AMARE [1] | Pre-emergence herbicidal activity, damage score ECHCG [2]
0: Pre-emergence herbicidal activity, damage score ALOMY [2] | Pre-emergence herbicidal activity, damage score SETFA [2]
2: Pre-emergence herbicidal activity, damage score ZEAMX [2]
4: Herbicidal damage score, ALOMY [1] | Herbicidal damage score, ECHCG [1]
